Source: patent US6953789B2, “Thiol compounds, their production and use” (Takeda Chemical Industries, Ltd., priority 1998, dated 2005)

Target: T1, recombinant human MMP-13 (Homo sapiens, UniProt P45452)
T1 construct: made in house; host or cells: baculovirus (pBlueBac4 / Bac-N-Blue; virus made in Sf9), expressed in High-Five insect cells; culture supernatant used
Assay: Assay of MMP-13 inhibiting activity (fluorogenic peptide substrate)
Format: biochemical
Conditions: Table 3; 37° C., 2 hours
Source text: Based on the sequence described in the literature by Freije, J. M. et al (Journal of Biological Chemistry, 269: 16766-16773, 1994) and using a PCR method known per se, a human MMP-13 cDNA was obtained.
A pBlueBac4 (Invitrogen) and a Baculovirus vector Bac-N-Blue (Invitrogen) to each of which the human MMP-13 cDNA obtained above was integrated were co-transfected to an Sf9 cell to obtain a MMP-13-expressing recombinant virus.
The recombinant virus thus obtained was infected to a High-Five cell (Invitrogen), and the culture supernatant after three days was employed as an enzyme solution. Experiment 2 Assay of MMP-13 inhibiting activity
75 μl of a sample containing the recombinant human MMP-13, 200 mM sodium chloride, 20 mM calcium chloride, 0.1% Brij 35, 1 mM 2-mercaptoethanol, 200 mM tris-HCl buffer solution (pH7.5) and a test substance at various concentrations was treated with 25 μl of 40 μM MOCAc-Pro-Leu-Gly-Leu-A2pr(DNP)-Ala-Arg-NH2 (PEPTIDE KENKYUSHO) to initiate a reaction and kept at 37° C. for 2 hours, and then 100 μl of 500 mM sodium acetate-HCl buffer solution (pH3.0) was added to terminate the reaction.
The level of liberated MOCAc-Pro-Leu-Gly was determined using a fluorophotometer (MTP-32/F2: CORONA DENKI) at the excitation wavelength of 330 nm and the fluorescent wavelength of 405 nm. The fluorescent level of the reaction in the absence of a test substance was regarded as 100%, and the concentration of each test substance required for achieving 50% inhibition was indicated as IC50.

| Compound | IC50 [nM] |
| --- | --- |
| O=C(O)CC(=O)S[C@@H]1CC(=O)N(Cc2ccc(Oc3ccccc3)cc2)C1 [Example 73, 3-Oxo-3-{[(3R)-5-oxo-1-(4-phenoxybenzyl)pyrrolidinyl]sulfanyl}propanoic acid] | 11 |
| CCOC(=O)CCC(=O)S[C@@H]1CC(=O)N(Cc2ccc(Oc3ccccc3)cc2)C1 [Example 74, Ethyl 4-oxo-4-{[(3R)-5-oxo-1-(4-phenoxybenzyl)pyrrolidinyl]sulfanyl}butanoate] | 5.4 |
| O=C(O)CCC(=O)S[C@@H]1CC(=O)N(Cc2ccc(Oc3ccccc3)cc2)C1 [Example 75, 4-Oxo-4-{[(3R)-5-oxo-1-(4-phenoxybenzyl)pyrrolidinyl]sulfanyl}butanoic acid] | 8 |
| CNC(=S)S[C@@H]1CC(=O)N(Cc2ccc(Oc3ccccc3)cc2)C1 [Example 76] | 1.2 |
| CCNC(=S)S[C@@H]1CC(=O)N(Cc2ccc(Oc3ccccc3)cc2)C1 [Example 77] | 1.6 |
| COC(=O)SS[C@@H]1CC(=O)N(Cc2ccc(Oc3ccccc3)cc2)C1 [Example 78, (4R)-4-[(Methoxycarbonyl)disulfanyl]-2-oxo-1-(4-phenoxybenzyl)pyrrolidine] | > 10000 |
| CCSS[C@@H]1CC(=O)N(Cc2ccc(Oc3ccccc3)cc2)C1 [Example 79, (4R)-4-(Ethyldisulfanyl)-1-(4-phenoxybenzyl)-2-pyrrolidinone] | 100 |
| CCCCCCSS[C@@H]1CC(=O)N(Cc2ccc(Oc3ccccc3)cc2)C1 [Example 80, (4R)-4-(Hexyldisulfanyl)-1-(4-phenoxybenzyl)-2-pyrrolidinone] | 1000 |
| CC(C)(C)SS[C@@H]1CC(=O)N(Cc2ccc(Oc3ccccc3)cc2)C1 [Example 81, (4R)-4-(t-Butyldisulfanyl)-1-(4-phenoxybenzyl)-2-pyrrolidinone] | 1000 |
| CCOC(=O)CSS[C@@H]1CC(=O)N(Cc2ccc(Oc3ccccc3)cc2)C1 [Example 82] | 50 |
| O=C(O)CSS[C@@H]1CC(=O)N(Cc2ccc(Oc3ccccc3)cc2)C1 [Example 83] | 400 |
| O=C(O)CCSS[C@@H]1CC(=O)N(Cc2ccc(Oc3ccccc3)cc2)C1 [Example 85] | 460 |
| O=C(O)c1ccccc1SS[C@@H]1CC(=O)N(Cc2ccc(Oc3ccccc3)cc2)C1 [Example 86] | 500 |
| O=C1C[C@@H](SSc2ccccc2[N+](=O)[O-])CN1Cc1ccc(Oc2ccccc2)cc1 [Example 87, (4R)-4-[(2-Nitrophenyl)disulfanyl)-1-(4-phenoxybenzyl)-2-pyrrolidinone] | 600 |
| C/C(=C(\CCO)SS[C@@H]1CC(=O)N(Cc2ccc(Oc3ccccc3)cc2)C1)N(C=O)Cc1cnc(C)nc1N [Example 88, (4-Amino-2-methyl-5-pyrimidinyl)methyl((Z)-4-hydroxy-1-methyl-2-{[(3R)-5-oxo-1-(4-phenoxybenzyl)pyrrolidinyl]disulfanyl}-1-butenyl)formamide] | 670 |
| CS[C@@H]1CC(=O)N(Cc2ccc(Oc3ccccc3)cc2)C1 [Example 89, (4R)-4-(Methylsulfanyl)-1-(4-phenoxybenzyl)-2-pyrrolidinone] | 700 |
| O=C1C[C@@H](SCCO)CN1Cc1ccc(Oc2ccccc2)cc1 [Example 90, (4R)-4-[(2-Hydroxyethyl)sulfanyl)-1-(4-phenoxybenzyl)-2-pyrrolidinone] | 5000 |

| Compound | IC50 [nM] |
| --- | --- |
| O=C(O)CS[C@@H]1CC(=O)N(Cc2ccc(Oc3ccccc3)cc2)C1 [Example 91, 2-{[(3R)-5-Oxo-1-(4-phenoxybenzyl)pyrrolidinyl]sulfanyl}acetic acid] | 1000 |
| CCOC(=O)CCS[C@@H]1CC(=O)N(Cc2ccc(Oc3ccccc3)cc2)C1 [Example 92, Ethyl 3-{[(3R)-5-oxo-1-(4-phenoxybenzyl)pyrrolidinyl]sulfanyl}propanoate] | 2000 |
| O=C(O)CCS[C@@H]1CC(=O)N(Cc2ccc(Oc3ccccc3)cc2)C1 [Example 93, 3-{[(3R)-5-Oxo-1-(4-phenoxybenzyl)pyrrolidinyl]sulfanyl}propanoic acid] | 6000 |
| O=C1CC(SCc2ccc(Br)cc2)CN1Cc1ccc(Oc2ccccc2)cc1 (stereo not shown) [Example 94, 4-[(4-Bromobenzyl)sulfanyl)-1-(4-phenoxybenzyl)-2-pyrrolidinone] | 300 |
| COC(=O)c1ccc(CS[C@@H]2CC(=O)N(Cc3ccc(Oc4ccccc4)cc3)C2)cc1 [Example 95, Methyl 4-({[(3R)-5-oxo-1-(4-phenoxybenzyl)pyrrolidinyl]sulfanyl}methyl)benzoate] | 400 |
| O=C(O)c1ccc(CS[C@@H]2CC(=O)N(Cc3ccc(Oc4ccccc4)cc3)C2)cc1 [Example 96, 4-({[(3R)-5-oxo-1-(4-phenoxybenzyl)pyrrolidinyl]sulfanyl}methyl)benzoic acid] | 700 |
| O=C1CC(SCCS(=O)(=O)c2ccccc2)CN1Cc1ccc(Oc2ccccc2)cc1 (stereo not shown) [Example 97, 1-(4-phenoxybenzyl)-4-{[2-(phenylsulfonyl)ethyl]sulfanyl}-2-pyrrolidinone] | 2000 |
| COCS[C@@H]1CC(=O)N(Cc2ccc(Oc3ccccc3)cc2)C1 [Example 98, (4R)-4-[(Methoxymethyl)sulfanyl]-1-(4-phenoxybenzyl)-2-pyrrolidinone] | 200 |
| O=C1OC(S[C@@H]2CC(=O)N(Cc3ccc(Oc4ccccc4)cc3)C2)c2ccccc21 (stereo partly drawn) [Example 99, (4R)-4-[(3-Oxo-1,3-dihydro-2-benzofuran-1-yl)sulfanyl]-1-(4-phenoxybenzyl)-2-pyrrolidinone] | 7 |
| CC(=O)NCS[C@@H]1CC(=O)N(Cc2ccc(Oc3ccccc3)cc2)C1 [Example 100, N-({[(3R)-5-Oxo-1-(4-phenoxybenzyl)pyrrolidinyl]sulfanyl}methyl)acetamide] | 2000 |
| CC(C)(C)C(=O)NCS[C@@H]1CC(=O)N(Cc2ccc(Oc3ccccc3)cc2)C1 [Example 101, 2,2-Dimethyl-N-({[(3R)-5-oxo-1-(4-phenoxybenzyl)pyrrolidinyl]sulfanyl}methyl)propanamide] | 3000 |
| O=C(NCS[C@@H]1CC(=O)N(Cc2ccc(Oc3ccccc3)cc2)C1)c1ccccc1 [Example 102, N-({[(3R)-5-oxo-1-(4-phenoxybenzyl)pyrrolidinyl]sulfanyl}methyl)benzamide] | 100 |
| CCOC(=O)NCS[C@@H]1CC(=O)N(Cc2ccc(Oc3ccccc3)cc2)C1 [Example 103, Ethyl {[(3R)-5-oxo-1-(4-phenoxybenzyl)pyrrolidinyl]sulfanyl}methylcarbamate] | 300 |
| O=C1C[C@@H](SCN2C(=O)c3ccccc3C2=O)CN1Cc1ccc(Oc2ccccc2)cc1 [Example 104, 2-({[(3R)-5-oxo-1-(4-phenoxybenzyl)pyrrolidinyl]sulfanyl}methyl)-1H-isoindole-1,3-(2H)-dione] | 200 |
| O=C1CC(S[C@@H]2CC(=O)N(Cc3ccc(Oc4ccccc4)cc3)C2)C(=O)N1 (stereo partly drawn) [Example 105, 3-{[(3R)-5-Oxo-1-(4-phenoxybenzyl)pyrrolidinyl]sulfanyl}-2,5-pyrrolidinedione] | 40 |
| CN1C(=O)CC(S[C@@H]2CC(=O)N(Cc3ccc(Oc4ccccc4)cc3)C2)C1=O (stereo partly drawn) [Example 106, 1-Methyl-3-{[(3R)-5-oxo-1-(4-phenoxybenzyl)pyrrolidinyl]sulfanyl}-2,5-pyrrolidinedione] | 20 |
| CCOC(=O)S[C@@H]1CC(=O)N(Cc2ccc(Oc3ccccc3)cc2)C1 [Example 107, O-Ethyl S-[(3R)-5-oxo-1-(4-phenoxybenzyl)pyrrolidinyl]carbanothioate] | 30 |
